Legend:
[1] = tested on: 5 to 10 base pair sites based on a 5′-TGACA-3′ core sequence; experiment: Footprint titration of three- to eight-ring polyamide dimers (Table 2); format: binding; details: 22° C., pH 7.0; for association constant: mean of at least three footprint titrations
Excerpt: To determine the effect of polyamide length on binding site size, binding affinity, and sequence specificity, a series of six polyamides containing three to eight rings was synthesized. (Kelly, et al. Proc. Natl. Acad. Sci. U.S.A. 93, 6981-6985 (1996).) The series is based on ImPyPy-Dp with pyrrolecarboxamide moieties added sequentially to the C-termini to afford ImPyPyPy-Dp, ImPyPyPyPy-Dp, ImPyPyPyPyPy-Dp, ImPyPyPyPyPyPy-Dp, and ImPyPyPyPyPyPyPy-Dp which are designed to bind 5 to 10 base pair sites, respectively as side-by-side antiparallel dimers. DNA binding sites are based on a 5′-TGACA-3′ core sequence and contain sequential A,T inserts in the center of the binding site that will be recognized by the additional pyrrole carboxamides.

[2] = tested on: 5′-AACCAAGTCTTGGTA-3′; experiment: Association constants, recognition of 15 base pairs; details: for Ka Match: Table 5, ImPyPy-X-ImImPy-γ-PyPyPy-β-Dp, 24° C., pH 7.0; for Specificity Center mismatch / Specificity Edge mismatch: Table 5; for Specificity Center mismatch: match vs 5′-AACCAACTGTTGGTA-3′; for Specificity Edge mismatch: match vs 5′-AACCAAGTCTTGCGA-3′
[3] = tested on: 5′-TGTCAAGACA-3′; experiment: Recognition of 9-11 base pairs (Table 9); format: binding; details: 22° C. and pH 7.0
Excerpt: (§1) Table 9 illustrates recognition of recognition of 9-11 base pairs by ImPyPy-X-ImPyPy-β-Dp.

[4] = tested on: 5′-TGTCAAAGACA-3′; experiment: Recognition of 9-11 base pairs (Table 9); format: binding; details: 22° C. and pH 7.0
Excerpt: as §1

[5] = tested on: 5′-gcggtTGTCAacccg-3′; experiment: Recognition of 9-11 base pairs (Table 9); format: binding; details: 22° C. and pH 7.0
Excerpt: as §1

[6] = tested on: 5′-TGTCAGACA-3′; experiment: Recognition of 9-11 base pairs (Table 9); format: binding; details: 22° C. and pH 7.0
Excerpt: as §1

| Compound | specificity (ratio of match site affinity to affinity of the single base pair mismatch site) [1] | association constant [1] | Ka Match [2] | Specificity Center mismatch [2] | Specificity Edge mismatch [2] | further results |
| --- | --- | --- | --- | --- | --- | --- |
| CN(C)CCCNC(=O)c1cc(NC(=O)c2cc(NC(=O)c3cc(NC(=O)c4nccn4C)cn3C)cn2C)cn1C [ImPyPyPy-Dp] | 5.3-fold | 8.5e+06 M⁻¹ |  |  |  |  |
| CN(C)CCCNC(=O)CCNC(=O)c1cc(NC(=O)c2cc(NC(=O)c3cc(NC(=O)CCCNC(=O)c4cc(NC(=O)c5nc(NC(=O)c6nc(NC(=O)CCCCCCNC(=O)c7cc(NC(=O)c8cc(NC(=O)c9nccn9C)cn8C)cn7C)cn6C)cn5C)cn4C)cn3C)cn2C)cn1C [ImPyPy-C7-ImImPy-γ-PyPyPy-β-Dp, ImPyPy-X-ImImPy-γ-PyPyPy-β-Dp] |  |  | 2e+08 M⁻¹ | 2 | 2 |  |
| CN(C)CCCNC(=O)CCNC(=O)c1cc(NC(=O)c2cc(NC(=O)c3cc(NC(=O)CCCNC(=O)c4cc(NC(=O)c5nc(NC(=O)c6nc(NC(=O)CCCCCNC(=O)c7cc(NC(=O)c8cc(NC(=O)c9nccn9C)cn8C)cn7C)cn6C)cn5C)cn4C)cn3C)cn2C)cn1C [ImPyPy-C6-ImImPy-γ-PyPyPy-β-Dp, ImPyPy-X-ImImPy-γ-PyPyPy-β-Dp] |  |  | 2e+08 M⁻¹ | 12 | 15 |  |
| CN(C)CCCNC(=O)CCNC(=O)c1cc(NC(=O)c2cc(NC(=O)c3cc(NC(=O)CCCNC(=O)c4cc(NC(=O)c5nc(NC(=O)c6nc(NC(=O)CCNC(=O)CCNC(=O)c7cc(NC(=O)c8cc(NC(=O)c9nccn9C)cn8C)cn7C)cn6C)cn5C)cn4C)cn3C)cn2C)cn1C [ImPyPy-β-β-ImImPy-γ-PyPyPy-β-Dp, ImPyPy-X-ImImPy-γ-PyPyPy-β-Dp] |  |  | 3e+08 M⁻¹ | 2 | 2 |  |
| ImPyPyPyPy-Dp | 5.7-fold | 4.5e+07 M⁻¹ |  |  |  |  |
| CN(C)CCCNC(=O)CCNC(=O)c1cc(NC(=O)c2cc(NC(=O)c3cc(NC(=O)CCCNC(=O)c4cc(NC(=O)c5nc(NC(=O)c6nc(NC(=O)CCCNC(=O)c7cc(NC(=O)c8cc(NC(=O)c9nccn9C)cn8C)cn7C)cn6C)cn5C)cn4C)cn3C)cn2C)cn1C [ImPyPy-γ-ImImPy-γ-PyPyPy-β-Dp, ImPyPy-X-ImImPy-γ-PyPyPy-β-Dp] |  |  | 1e+07 M⁻¹ | 1 | 1 |  |
| CN(C)CCCNC(=O)CCNC(=O)c1cc(NC(=O)c2cc(NC(=O)c3cc(NC(=O)CCNC(=O)c4cc(NC(=O)c5cc(NC(=O)c6nccn6C)cn5C)cn4C)cn3C)cn2C)cn1C [ImPyPy-β-PyPyPy-β-Dp] |  |  |  |  |  | 5′-TGTCAAGACA-3′ [3]: 5 × 10^7; 5′-TGTCAAAGACA-3′ [4]: 5 × 10^7; 5′-gcggtTGTCAacccg-3′ [5]: 3 × 10^7; 5′-TGTCAGACA-3′ [6]: 2 × 10^8 |
| ImPyPyPyPyPyPyPy-Dp | 1-fold | <2e+07 M⁻¹ |  |  |  |  |
| ImPyPyPyPyPy-Dp | 2.7-fold | 5.3e+07 M⁻¹ |  |  |  |  |
| CN(C)CCCNC(=O)c1cc(NC(=O)c2cc(NC(=O)c3nccn3C)cn2C)cn1C [ImPyPy-Dp] | 6.5-fold | 130000 M⁻¹ |  |  |  |  |
| CN(C)CCCNC(=O)CCNC(=O)c1cc(NC(=O)c2cc(NC(=O)c3nc(NC(=O)CCCCCNC(=O)c4cc(NC(=O)c5cc(NC(=O)c6nccn6C)cn5C)cn4C)cn3C)cn2C)cn1C [ImPyPy-C6-ImPyPy-β-Dp] |  |  |  |  |  | 5′-TGTCAAGACA-3′ [3]: 2 × 10^8; 5′-TGTCAAAGACA-3′ [4]: 5 × 10^7; 5′-gcggtTGTCAacccg-3′ [5]: 5 × 10^7; 5′-TGTCAGACA-3′ [6]: 1 × 10^8 |

Reference: patent US6555692B1, “Preparation and use of bifunctional molecules having DNA sequence binding specificity” (California Institute of Technology, priority 1996, dated 2003)
